Experimental data: patent US20060052248A1, “Use of a substance with oxytocin activity in order to stimulate plant growth” (priority 2001, published 2006)

Legend:
Format in all cases: in vivo
[1] = tested on: winter wheat (Triticum sativum); assay: Germination test, winter wheat seeds
Experimental: (§1) Statistical analysis was performed by means of 2-way ANOVA followed by Bonferoni's test for post hoc comparison. Results are given as mean values. Differences in the number of germinated seeds, coleoptile length, root length (Example 1) and growth of lettuce (Example 2) were assessed by Student's t-test for independent means. Results were considered significant when p<0.05. In each of 10 Petri dishes with a diameter of 10 cm, 100 seeds of winter wheat (Triticum sativum) are placed together with two filter papers. To five of the Petri dishes is added 4.5 ml of a 1 μg/ml aqueous solution of oxytocin. To the other five Petri dishes is added the same amount of tap water. All ten Petri dishes are placed in darkness for germination during fourteen days at a temperature of 18° C.

[2] = tested on: bent (Agrostis tenuis); assay: Germination test, bent seeds
Experimental: as §1, with “seeds of bent (Agrostis tenuis) are placed” for “seeds of winter wheat (Triticum sativum) are placed”, “dishes are then placed in” for “dishes are placed in”

[3] = tested on: lettuce (Lactuca sativa), sort "Calgary"; assay: Growth test, lettuce in nutrient solution; conditions: for Root, dm / Shoot, dm: dry weight/fresh weight; for Root length / Root, dw / Root, fw / Shoot, dw / Shoot, fw / Whole plant, dw / Whole plant, fw: harvest 21 days; for Shoot/root, dw / Shoot/root, fw: ratio
Experimental: Statistical analysis was performed by means of 2-way ANOVA followed by Bonferoni's test for post hoc comparison. Results are given as mean values. Differences in the number of germinated seeds, coleoptile length, root length (Example 1) and growth of lettuce (Example 2) were assessed by Student's t-test for independent means. Results were considered significant when p<0.05.
The plant used was lettuce (Lactuca sativa), sort “Calgary” and non-disinfected ecological seeds were used. In the same manner as in Example 1, 150 seeds are germinated in oxytocin solution and 150 seeds are germinated in tap water, in both cases in darkness.
After germination for six days, the germs are put into 1 litre test vessels with four germs per vessel. To ten vessels are added oxytocin treated germs and to ten other vessels are added germs treated with tap water, giving totally eighty plants. Each vessel contains 1 litre 300 μM calcium sulphate solution. Other nutrients were added on the first and third day and from day five until harvest, 21 days after transferring germs to vessels. Increasing volumes from a stock nutrient solution (24 mM potassium, 2.5 mM magnesium, 22.3 mM ammonium, 4 mM phosphorus, 46.9 mM nitrate, 1 mM chlorine and trace elements) were supplied to meet the immediate nutrient demand of plants with a relative growth rate of 20% day^−1. Three days after the transport of the germs to the vessels, 1 mg of oxytocin was added to half of the oxytocin treated germs and to half of the germs treated with tap water giving a oxytocin concentration of 1 μg/ml. The growth phase experiment was performed in a climate chamber with 14 hours illumination per day at a temperature of 18° C. at light and at a temperature of 14° C. in darkness.
Accordingly, the eighty plants have been treated as follows:
20 plants (5 vessels each having 4 plants)—treated with tap water during germination and growth (denoted −ox/−ox);
20 plants (5 vessels each having 4 plants)—treated with oxytocin solution during germination and with tap water during growth (denoted +ox/−ox);
20 plants (5 vessels each having 4 plants)—treated with tap water during germination and with oxytocin solution during growth (denoted −ox/+ox);
20 plants (5 vessels each having 4 plants)—treated with oxytocin solution during germination and growth (denoted +ox/+ox).

[4] = 1 μg/ml aqueous oxytocin, 14 days darkness, 18° C.
[5] = 100 seeds per dish, 1 μg/ml aqueous oxytocin, 14 days darkness, 18° C.
[6] = versus tap water, 1 μg/ml oxytocin
[7] = +ox/+ox: oxytocin during germination and growth
[8] = +ox/−ox: oxytocin during germination only
[9] = −ox/+ox: oxytocin 1 μg/ml during growth only

oxytocin
Coleoptile length [1, 4]: 27.4 mm
Root length [1, 4]: 36.0 mm
Germinated seeds (mean number) [1, 5]: 97.0
Effect on germination and growth of seeds (in words) [1, 6]: increased the number of germinated seeds and stimulated the growth of seeds
Coleoptile length [2, 4]: 39.1 mm
Root length [2, 4]: 15.7 mm
Germinated seeds (mean number) [2, 5]: 9.8
Effect on germination and growth of seeds (in words) [2, 6]: only the increase in root length was significant
Root length compared with control (in words) ([3]; +ox/+ox: oxytocin available during the whole experiment period): inhibited
Growth compared with control (−ox/−ox) (in words) ([3]; +ox/+ox: oxytocin during both germination and growth): no effects compared with control
Root, dm [3, 7]: 6.44b %
Shoot, dm [3, 7]: 13.34b %
Root length [3, 7]: 21.00b cm
Root, dw [3, 7]: 0.126b g
Root, fw [3, 7]: 1.94ab g
Shoot, dw [3, 7]: 0.596b g
Shoot, fw [3, 7]: 4.466a g
Whole plant, dw [3, 7]: 0.721b g
Whole plant, fw [3, 7]: 6.41ab g
Shoot/root, dw [3, 7]: 4.76a
Shoot/root, fw [3, 7]: 2.30a
Growth compared with control (−ox/−ox) (in words) ([3]; +ox/−ox: oxytocin at germination): significant increase in growth
Root, dm [3, 8]: 7.03a %
Shoot, dm [3, 8]: 14.06ab %
Root length [3, 8]: 24.4a cm
Root, dw [3, 8]: 0.141a g
Root, fw [3, 8]: 2.03a g
Shoot, dw [3, 8]: 0.641ab g
Shoot, fw [3, 8]: 4.559a g
Whole plant, dw [3, 8]: 0.782a g
Whole plant, fw [3, 8]: 6.59a g
Shoot/root, dw [3, 8]: 4.59a
Shoot/root, fw [3, 8]: 2.24a
Root, dm [3, 9]: 6.92ab %
Shoot, dm [3, 9]: 14.55a %
Root length [3, 9]: 23.6a cm
Root, dw [3, 9]: 0.141a g
Root, fw [3, 9]: 2.00a g
Shoot, dw [3, 9]: 0.656a g
Shoot, fw [3, 9]: 4.508a g
Whole plant, dw [3, 9]: 0.797a g
Whole plant, fw [3, 9]: 6.51ab g
Shoot/root, dw [3, 9]: 4.67a
Shoot/root, fw [3, 9]: 2.25a
Growth compared with control (−ox/−ox) (in words) ([3]; −ox/+ox: oxytocin during growth in nutrient solution): significant increase in growth
